Results reported in patent US8501792B2, “Treating cancer with desthiazolyl ritonavir” (priority 2008, dated 2013).
Read-outs that look alike come from different tables or passages of the source.

Key:
MCF7 (ER+) = experiment: MTT proliferation assay, MCF7; assay type: cell-based; conditions: Homo sapiens
Description: (§1) Cells (n=2000/well) were seeded in 96 well plates with drug or vehicle (DMSO) on D1 and after 48 h the cell number was determined by MTT assay.

HER2 = experiment: Surface HER2 flow cytometry in SKBR3 cells; assay type: cell-based
Description: SKBR3 cells were plated at a density of 80,000 cells/well in 6-well plates. After 18 hours, cells were exposed to ritonavir (33 μM), Desthiazolyl Ritonavir (M1) (33 μM), or DMSO. After 24 hours, cells were trypsinized, spun down, and resuspended in 50 μL of Staining Buffer (PBS 1% BSA). Cells were then incubated with anti-HER2 Ab FITC (Chemicon International; MAB4083F) for 30 minutes (on-ice and in the dark). Control cells were incubated with mouse IgG1 FITC (Biolytex). Cells were washed two times with Washing Buffer (PBS 0.1% Tween-20), resuspended in 100 μL of PBS, and acquired using FACSCalibur flow cytometer.

SKBR3 (ER-/Her2+) [1] = experiment: MTT proliferation assay, SKBR3; assay type: cell-based; conditions: Homo sapiens, SK-BR-3, Example 6, MTT after 48 h
Description: M1 inhibition of proliferation of MCF7 (ER+), T47D (ER+), MDA-MB-231 (triple negative), SKBR3 (ER−/Her2+), and the non-transformed mammary line MCF10A were studied. Cells (n=2000/well) were seeded in 96 well plates with drug or vehicle (DMSO) on D1 and after 48 h the cell number was determined by MTT assay.

MDA-MB-231 xenograft = experiment: Murine breast cancer xenograft; assay type: in vivo, female nude mice (nu-/nu-)
Description: (§2) Six-8 weeks old female nude mice (nu^−/nu^−) (Charles River Laboratories International, Inc., MA) were injected into a right mammary fat pad with 1×10^6 log-phase MDA-MB-231. Mice were monitored bi-weekly for weight and tumor growth. When tumors reached a volume of approximately 30-40 mm^3 (calculated according to the formula: volume (mm^3)=(length)(width)^2/2), mice were randomized into three groups (each group n=10). One group of mice was injected daily i.p. with ritonavir (20 mg/Kg in 100 μl of ethanol-Tween 80), the second with M1 (20 mg/Kg in 100 μl of ethanol-Tween 80), and the third with vehicle only (100 μl of ethanol-Tween 80). […] Mice were weighted and their tumors were measured twice a week for the entire duration of the treatment (42 days).
One hour after the last drug/vehicle injection plasma, tumors, lungs, liver, tongue, and skin were collected from each mouse. Plasma was stored at −80° C.; half of the tissues were treated to prepare paraffin blocks, and half were frozen in liquid nitrogen and stored at −80° C.

MCF7-her2 line = experiment: MTT proliferation assay, MCF7-her2 line; assay type: cell-based; conditions: MCF7-her2 line over-expressing her2; MTT after 48 h
[2] = Tolerability in nude mice (MTD, weight); assay type: in vivo; conditions: for MTD: female, nude (nu-/nu-), mouse, in vivo
Description: as §2

T47D (ER+) = experiment: MTT proliferation assay, T47D; assay type: cell-based; conditions: Homo sapiens
Description: as §1

SKBR3 (ER-/Her2+) [3] = experiment: Annexin V-FITC/PI apoptosis flow cytometry, SKBR3; assay type: cell-based
Description: (§3) Induction of apoptosis was studied in a MCF7 breast cancer cell line. Apoptotic cells were detected using an Annexin V-FITC/PI apoptosis detection kit (Oncagene, Boston, Mass.). After plating at 5×10^5 in a 100-mm plate, the cells were grown for 48 hours in complete medium in presence of M1, ritonavir, or vehicle (DMSO). The culture and drug exposure conditions for the apoptosis assays were done across a range of 5 to 60 μmol/L M1 and ritonavir. Cells were harvested by trypsin treatment, washed with complete medium to neutralize the trypsin, and stained with PI and Annexin V-FITC. A total of 1×10^4 events were analyzed per assay by FACScan analysis using CellQuest software (Becton Dickinson). Replicate assays were done to confirm the results.
A similar study was performed using T47D (ER+), MDA-MB-231 (triple negative) and SKBR3 (ER−/Her2+) cell lines were performed as above.

Purified mammalian Hsp90 = experiment: Hsp90 binding on CM-5 BIAcore chip (surface plasmon resonance); conditions: RU value versus drug concentration; FIG. 11
Description: Inhibition of Hsp90 can be evaluated by surface plasmon resonance studies of a compound of formula I, using a CM-5 Biacore chip on which Hsp90 (Stressgen, Ann Arbor) has been immobilized. This method can also be used to evaluate the chaperoning activity of a compound of formula I by evaluation of luciferase refolding. See Examples 4 and 9.
Purified mammalian Hsp90 was attached to a CM-5 BIAcore chip through an NHS ester linkage. After attachment of the Hsp90 and blocking the chip with BSA, M1 drug or a 17-AAG control was circulated through a microfluidic circuit and change in refractive index was measured by quantification of the RU value for each drug concentration. In the case of the 17-AAG control the binding was saturable and based on the kon and koff measurements, the KD was estimated to be in the 1 microM range. […] This means that there are significant differences in the binding of M-1 and may indicate alteration of the Hsp90 structure.

HIV = conditions: MT-4 cell based assay; Denissen et al. 1997; cited from earlier work
Hsp90 = experiment: 70 kDa Hsp90 fragment after treatment; assay type: cell-based; conditions: data not shown
[4] = tested on: MCF7 breast cancer cell line; experiment: Annexin V-FITC/PI apoptosis flow cytometry, MCF7; assay type: cell-based; conditions: for early apoptotic cells: preliminary flow cytometry apoptosis studies; for UR % Late Apoptosis / LR % Early Apoptosis: 48 hours; for fraction of apoptotic cells (early, lower right quadrant): at the ritonavir IC50 (30 μM), FIG. 2
Description: Induction of apoptosis can be determined using the Annexin V-FITC/PI apoptosis detection kit (Oncagene, Boston, Mass.). For example, after plating at 5×10^5 in a 100-mm plate, cancer cells can be grown for 48 hours in complete medium in presence of a drug, including a compound or formula 1, and a control, such as vehicle (DMSO). The culture and drug exposure conditions for the apoptosis assays can be done across a range of 5 to 60 μmol/L drug. Cells can be harvested by trypsin treatment, washed with complete medium to neutralize the trypsin, and stained with PI and Annexin V-FITC. The events can then be analyzed using FACScan analysis and CellQuest software (Becton Dickinson). See Example 2.
as §3

[5] = Table 1, below the IC50 for both drugs, 45 μM
[6] = Table 3, at the ritonavir IC50, 30 μM
[7] = Table 4, above the IC50 for both drugs, 45 μM

SMILES | IC50 (SKBR3 (ER-/Her2+) [1]) | IC50 (MCF7-her2 line) | fraction of apoptotic cells (SKBR3 (ER-/Her2+) [3]) | early apoptotic cells ([4]; 45 μM) | UR % Late Apoptosis ([4]; Table 1, 45 μM) | LR % Early Apoptosis [4, 5] | LR % Early Apoptosis ([4]; Table 2, at the M1 IC50, 15 μM) | UR % Late Apoptosis ([4]; Table 2, at the M1 IC50, 15 μM) | LR % Early Apoptosis [4, 6] | UR % Late Apoptosis [4, 6] | LR % Early Apoptosis [4, 7] | UR % Late Apoptosis [4, 7] | fraction of apoptotic cells (early, lower right quadrant) [4] | also measured
CC(C)c1nc(CN(C)C(=O)NC(C(=O)NC(Cc2ccccc2)CC(O)C(N)Cc2ccccc2)C(C)C)cs1 (stereo not shown) [M1, desthiazolyl ritonavir] | 12 µM | 25 µM | 78% | 28% | 34.74% | 27.46% | 9.42% | 10.73% | 39.74% | 20.00% | 31.95% | 21.31% | 32% | IC50 (MCF7 (ER+); MCF7, Example 6, MTT after 48 h, read-out: IC50, proliferation): 15 µM; anti-HER2 functionality / expression of surface HER2 (HER2; SKBR3, 33 μM, 24 hours, FIG. 7): exhibited anti-HER2 functionality; reduction of the expression of surface HER2 (HER2; SKBR3 line, P<0.05): up to 80%; tumor growth compared to mice treated with only the vehicle (MDA-MB-231 xenograft; 20 mg/Kg daily i.p., 42 days, FIG. 5A): delayed tumor growth; tumor growth compared to ritonavir (MDA-MB-231 xenograft; 20 mg/Kg daily i.p., 42 days, FIG. 5B): statistically significant delay in tumor growth; reduction of the average tumor size (MDA-MB-231 xenograft; at MTD (20 mg/Kg), 42 days of follow-up, P<0.05): 2 -fold; MTD [2]: 20 mg/kg; IC50 (T47D (ER+); Example 6, MTT after 48 h, read-out: IC50, proliferation): 10 µM; binding to Hsp90, saturability (Purified mammalian Hsp90): the binding is not saturable; inhibition of HIV replication (HIV): does not inhibit HIV replication; major 70 kDa Hsp90 fragment (Hsp90): observed
CC(C)c1nc(CN(C)C(=O)N[C@H](C(=O)N[C@@H](Cc2ccccc2)C[C@H](O)[C@H](Cc2ccccc2)NC(=O)OCc2cncs2)C(C)C)cs1 [ritonavir] | 33 µM | 25 µM | 11% | 14% | 23.0% | 14.12% | 13.83% | 11.16% | 15.11% | 7.95% | 17.10% | 7.30% | 17% | IC50 (MCF7 (ER+); MCF7, 48 h, read-out: IC50, proliferation): 28 µM; IC50 (MCF7 (ER+); MCF7, as quoted in Example 2, read-out: IC50): 30 µM; effect on MDA-MB-231 xenograft (MDA-MB-231 xenograft; at its MTD (40 mg/Kg)): inhibits; effect on MDA-MB-231 xenograft (MDA-MB-231 xenograft; half its MTD (20 mg/Kg)): ineffective; Animal weight loss ([2]; 20 mg/Kg daily i.p., 42 days, FIG. 5C): did not occur; MTD ([2]; nude mice, read-out: maximum tolerated dose (MTD)): 40 mg/kg; IC50 (T47D (ER+); 48 h, read-out: IC50, proliferation): 23 µM; IC50 (T47D (ER+); as quoted in Example 4, read-out: IC50): 20 µM; 70 kDa Hsp90 fragment, less abundant than with M1 (Hsp90): 3 -fold
